Assays:
[1] = system: K/1 = ras^K Transformed NRKE Cells; details: for Differential Index K/1: K/1 = ras^K transformed NRKE cells, compared with normal NRKE cells
[2] = system: 3LL = Lewis Lung Carcinoma Cells; details: 3LL = Lewis lung carcinoma cells, compared with normal NRKE cells
[3] = system: N/4.2-NRKE transformed by the human ras^N gene; details: N/4.2 = ras^N transformed NRK cells, compared with normal NRKE cells
[4] = system: H/1.2 = ras^H Transformed NRKE Cells; details: H/1.2 = ras^H transformed NRKE cells, compared with normal NRKE cells
[5] = system: Colon Cancer cell lines; assay: NCI in vitro anticancer screen (SRB), colon cancer subpanel; details: 48 hours exposure; average percent growth over the cell lines
Description: (§1) Compounds chosen for the program are initially tested in an in vitro anticancer screen. A total of fifty-five human tumor cell lines, derived from nine cancer types (lung, colon, melanoma, renal, ovarian, brain, prostate, breast and leukemia), are used in this screen. The tumor cells are inoculated over a series of standard 96-well microtiter plates on day 0. These cells are then preincubated on the microtiter plates for 24 hours. The test compounds are added to the wells in five 10-fold dilutions starting from the highest soluble concentration. Each compound is tested against every cell line in the panel. The compounds are incubated for 48 hours with the tumor cell lines. At the termination of the assay, the cells are fixed in situ, washed, and dried. Sulforhodamine B (SRB), a pink anionic dye that binds to the basic amino acids of trichloroacetic acid-fixed cells, is added. The cells are washed again, and the remaining dye is a function of the adherent cell mass. The bound stain is solubilized and measured spectrophotometrically. The data are entered from automatic reading devices into a computer for subsequent storage and analysis.
(§2) The measured effect of each test compound on the cell lines is calculated according to one or the other of the following two expressions:
(§3) If (Mean ODtest−Mean ODtzero)□0, then PG=100×(Mean ODtest−Mean ODtzero)/(Mean ODctrl−Mean ODtzero);
(§4) If (Mean ODtest−Mean ODtzero)<0, then PG=100×(Mean ODtest−Mean ODtzero)/Meantzero;

[6] = system: Breast Cancer cell lines; assay: NCI in vitro anticancer screen (SRB), breast cancer subpanel; details: 48 hours exposure; average percent growth over the cell lines
Description: as §1, §2, §3, §4

[7] = system: Ovarian Cancer cell lines; assay: NCI in vitro anticancer screen (SRB), ovarian cancer subpanel; details: 48 hours exposure; average percent growth over the cell lines
Description: as §1, §2, §3, §4

[8] = system: Renal Cancer cell lines; assay: NCI in vitro anticancer screen (SRB), renal cancer subpanel; details: 48 hours exposure; average percent growth over the cell lines
Description: as §1, §2, §3, §4
(§5) First, a data sheet is provided which lists, for each cell line, the Mean ODtzero, the Mean ODctrl, the Mean ODtest for each of the five concentrations, the calculated PGs for each concentration, and the response parameters G150, TGI, and LC50.
(§6) Third, mean graphs at each of the principal response parameters (GI50, TGI, and LC50) are provided. […] Since the bar scale is logarithmic, a bar two units to the right implies the compound achieved the response parameter (e.g., GI50) for the cell line at a concentration 1/100 the mean concentration required over all cell lines, and thus the cell line is unusually sensitive to that compound. Bars extending to the left correspondingly imply sensitivity less than the mean. Thus, the mean graphs facilitate visual scanning of data for potential patterns of selectivity for particular cell lines or for particular subpanels with respect to a selected response parameter.

[9] = system: Prostate Cancer cell lines; assay: NCI in vitro anticancer screen (SRB), prostate cancer subpanel; details: 48 hours exposure; average percent growth over the cell lines
Description: as §1, §2, §3, §4

[10] = system: Leukemia cell lines; assay: NCI in vitro anticancer screen (SRB), leukemia subpanel; details: 48 hours exposure; average percent growth over the cell lines
Description: as §1, §2, §3, §4, §5, §6

[11] = system: Non-Small Cell Lung Cancer cell lines; assay: NCI in vitro anticancer screen (SRB), non-small cell lung cancer subpanel; details: 48 hours exposure; average percent growth over the cell lines
Description: as §1, §2, §3, §4, §5, §6

[12] = system: CNS Cancer cell lines; assay: NCI in vitro anticancer screen (SRB), CNS cancer subpanel; details: 48 hours exposure; average percent growth over the cell lines
Description: as §1, §2, §3, §4, §5, §6

[13] = system: Melanoma cell lines; assay: NCI in vitro anticancer screen (SRB), melanoma subpanel; details: 48 hours exposure; average percent growth over the cell lines
Description: as §1, §2, §3, §4, §5, §6

[14] = system: K/1-NRKE tumor (ras^K-transformed NRKE cells); details: mouse, in vivo
[15] = target: HIV-RT (Human immunodeficiency virus type 1 group M subtype B, UniProt P03366); assay: HIV-RT inhibition by AZT-TP, lavendamycin analogs and their combinations; assay type: biochemical; set-up: unit of the concentration uncertain; details: LA Conc. 0 (unit uncertain); for % inh. ave.: average of three trials
Description: AZT-TP was used for these in vitro studies since AZT is naturally phosphorylated in vivo.
The results of these tests are given in Table XVIII and XIX below, where the percent inhibition of HIV-RT activity is reported for three different trials and then averaged in the seventh column. […] .

[16] = AZT-TP Conc. 0.01 (unit uncertain)
[17] = AZT-TP Conc. 0.05 (unit uncertain)

With `CCCC(=O)NC1=CC(=O)c2ccc(-c3nc(C(=O)OCCC(C)C)cc4c3[nH]c3ccccc34)nc2C1=O` [Compound 13, 7-N-BUTYRYLDEMETHYLLAVENDAMYCIN ISOAMYL ESTER] the “Differential Index K/1” value [1] was 1.67, the “Differential Index 3LL” value [2] was 0.42 and the “Differential Index N/4.2” value [3] was 1.53. The “Differential Index H/1.2” value [4] was 2.70.

For `CC(=O)NC1=CC(=O)c2ccc(-c3nccc4c3[nH]c3ccccc34)nc2C1=O` [Compound 6], the “Differential Index K/1” value [1] was 0.91, the “Differential Index 3LL” value [2] was 0.13 and the “Differential Index N/4.2” value [3] was 0.82. For the same molecule, the “Differential Index H/1.2” value [4] was 1.00.

With `CCCCCCCCOC(=O)c1cc2c([nH]c3ccccc32)c(-c2ccc3c(n2)C(=O)C(NC=O)=CC3=O)n1` [Compound 56, 7-N-formyldemethyllavendamycin octyl ester] the “Activity (Average PG for highest dose tested) Colon Cancer” value [5] was −30.0%, the “Activity (Average PG for highest dose tested) Breast Cancer” value [6] was −42.3% and the “Differential Index K/1” value [1] was greater than 1.57. For the same molecule, the “Activity (Average PG for highest dose tested) Ovarian Cancer” value [7] was −57.3%, the “Activity (Average PG for highest dose tested) Renal Cancer” value [8] was −51.3% and the “Differential Index 3LL” value [2] was greater than 1.03. For the same molecule, the “Activity (Average PG for highest dose tested) Prostate Cancer” value [9] was “+14.0%”, the “Activity (Average PG for highest dose tested) Leukemia” value [10] was −29.7% and the “Differential Index N/4.2” value [3] was greater than 1.5. For the same molecule, the “Activity (Average PG for highest dose tested) Non-Small Cell Lung Cancer” value [11] was −28.8%, the “Activity (Average PG for highest dose tested) CNS Cancer” value [12] was −36.8% and the “Differential Index H/1.2” value [4] was “i1.00”. The “Activity (Average PG for highest dose tested) Melanoma” value [13] was −39.9%.

For `CC(=O)NC1=CC(=O)c2ccc(-c3nc(C(=O)O)cc4c3[nH]c3ccccc34)nc2C1=O` [Compound 2], the “Activity (Average PG for highest dose tested) Colon Cancer” value [5] was −43.6%, the “Activity (Average PG for highest dose tested) Breast Cancer” value [6] was −32.6% and the “Differential Index K/1” value [1] was 2.14. The “Activity (Average PG for highest dose tested) Ovarian Cancer” value [7] was −62.7%, the “Activity (Average PG for highest dose tested) Renal Cancer” value [8] was −74.6% and the “Differential Index 3LL” value [2] was 0.38. For the same molecule, the “Activity (Average PG for highest dose tested) Prostate Cancer” value [9] was −45.5%, the “Activity (Average PG for highest dose tested) Leukemia” value [10] was −34.7% and the “Differential Index N/4.2” value [3] was 1.50. The “Activity (Average PG for highest dose tested) Non-Small Cell Lung Cancer” value [11] was −27.9%, the “Activity (Average PG for highest dose tested) CNS Cancer” value [12] was −26.6% and the “Differential Index H/1.2” value [4] was 1.36. The “Activity (Average PG for highest dose tested) Melanoma” value [13] was −53.7%.

For `CC(C)CCOC(=O)c1cc2c([nH]c3ccccc32)c(-c2ccc3c(n2)C(=O)C(NC(=O)CCl)=CC3=O)n1` [Compound 9, 7-N-CHLOROACETYLDEMETHYLLAVENDAMYCIN ISOAMYL ESTER], the “Differential Index K/1” value [1] was 2.41, the “Differential Index 3LL” value [2] was 0.42 and the “Differential Index N/4.2” value [3] was 1.13. The “Differential Index H/1.2” value [4] was 1.02.

`CCCCCCCCOC(=O)c1cc2c([nH]c3ccccc32)c(-c2ccc3c(n2)C(=O)C(NC(=O)CCC)=CC3=O)n1` [Compound 14, 7-N-BUTYRYLDEMETHYLLAVENDAMYCIN OCTYL ESTER] was tested, and the “Differential Index K/1” value [1] was greater than 10.0, the “Differential Index 3LL” value [2] was greater than 2.06 and the “Differential Index N/4.2” value [3] was greater than 2.2. For the same molecule, the “Differential Index H/1.2” value [4] was greater than 2.06.

For `Cc1ccc2c(n1)C(=O)C(N)=C(Cl)C2=O` [Compound 59, 7-Amino-6-Chloro-2-Methylquinoline-5,8-Dione], the “Differential Index K/1” value [1] was 1.25, the “Differential Index 3LL” value [2] was 0.63 and the “Differential Index N/4.2” value [3] was 1.14. The “Differential Index H/1.2” value [4] was 1.25.

For `CCCCCCCCOC(=O)c1cc2c([nH]c3ccccc32)c(-c2ccc3c(n2)C(=O)C(N)=CC3=O)n1` [Compound 57, demethyllavendamycin octyl ester], the “Activity (Average PG for highest dose tested) Colon Cancer” value [5] was “+100.3%”, the “Activity (Average PG for highest dose tested) Breast Cancer” value [6] was “+96.0%” and the “Activity (Average PG for highest dose tested) Ovarian Cancer” value [7] was “+89.3%”. For the same molecule, the “Activity (Average PG for highest dose tested) Renal Cancer” value [8] was “+68.7%”, the “Activity (Average PG for highest dose tested) Prostate Cancer” value [9] was “+94.5%” and the “Activity (Average PG for highest dose tested) Leukemia” value [10] was “+90.8%”. For the same molecule, the “Activity (Average PG for highest dose tested) Non-Small Cell Lung Cancer” value [11] was “+89.8%”, the “Activity (Average PG for highest dose tested) CNS Cancer” value [12] was “+81.0%” and the “Activity (Average PG for highest dose tested) Melanoma” value [13] was “+89.4%”.

`O=P1(N(CCCl)CCCl)NCCCO1` (stereo not shown) [CY, cyclophosphamide, reference compound] was tested, and the “Number Dead Number Treated” value ([14]; female, CD1 nu/nu) was 0/7 and the “Percent Wt. Change (g)” value [14] was −3.0 ″ 0.09 g.

With `CCCCOC(=O)c1cc2c([nH]c3ccc(F)cc32)c(-c2ccc3c(n2)C(=O)C(NC(C)=O)=CC3=O)n1` [Compound 5] the “Differential Index K/1” value [1] was 1.88, the “Differential Index 3LL” value [2] was 0.29 and the “Differential Index N/4.2” value [3] was 0.74. The “Differential Index H/1.2” value [4] was 0.88.

`COC(=O)c1nc(-c2ccc3c(n2)C(=O)C(NC(=O)CCl)=CC3=O)c2[nH]c3ccccc3c2c1C` [Compound 7, 7-N-CHLOROACETYLLAVENDAMYCIN METHYL ESTER] was tested, and the “Differential Index K/1” value [1] was 0.73, the “Differential Index 3LL” value [2] was 0.29 and the “Differential Index N/4.2” value [3] was 0.76. The “Differential Index H/1.2” value [4] was 1.00.

`CCCCOC(=O)c1cc2c([nH]c3ccccc32)c(-c2ccc3c(n2)C(=O)C(NC(=O)C(C)C)=CC3=O)n1` [Compound 15] was tested, and the “Differential Index K/1” value [1] was 2.25, the “Differential Index 3LL” value [2] was 1.00 and the “Differential Index N/4.2” value [3] was 1.80. The “Differential Index H/1.2” value [4] was 1.48.

In the case of `CCCCOC(=O)c1cc2c([nH]c3ccc(OC)cc32)c(-c2ccc3c(n2)C(=O)C(NC(C)=O)=CC3=O)n1` [Compound 4], the “Differential Index K/1” value [1] is reported as 1.14, the “Differential Index 3LL” value [2] is reported as less than 0.75 and the “Differential Index N/4.2” value [3] is reported as 1.14. The “Differential Index H/1.2” value [4] was 1.19.

With `CCCCOC(=O)c1cc2c([nH]c3ccccc32)c(-c2ccc3c(n2)C(=O)C(NC(=O)CCC)=CC3=O)n1` [Compound 12] the “Differential Index K/1” value [1] was 1.32, the “Differential Index 3LL” value [2] was 0.29 and the “Differential Index N/4.2” value [3] was 0.94. The “Differential Index H/1.2” value [4] was 1.61.

In the case of `Cc1cn([C@H]2C[C@H](N=[N+]=[N-])[C@@H](COP(=O)(O)OP(=O)(O)OP(=O)(O)O)O2)c(=O)[nH]c1=O` [AZT-TP, 3′-azido-3′-deoxythymidine 5′-triphosphate, reference compound], the “% inh. Trial 1” value [15, 16] is reported as 27%, the “% inh. Trial 2” value [15, 16] is reported as 27% and the “% inh. Trial 3” value [15, 16] is reported as 29%. The “% inh. ave.” value [15, 16] was 27.7%, the “% inh. Trial 1” value [15, 17] was 51% and the “% inh. Trial 2” value [15, 17] was 52%. For the same molecule, the “% inh. Trial 3” value [15, 17] was 49% and the “% inh. ave.” value [15, 17] was 50.7%.

With `CCCC(=O)NC1=CC(=O)c2ccc(-c3nc(C(=O)OC)c(C)c4c3[nH]c3ccccc34)nc2C1=O` [Compound 11, 7-N-BUTYRYLLAVENDAMYCIN METHYL ESTER] the “Differential Index K/1” value [1] was 0.97, the “Differential Index 3LL” value [2] was 0.39 and the “Differential Index N/4.2” value [3] was 0.76. For the same molecule, the “Differential Index H/1.2” value [4] was 0.80.

With `CC(C)C(=O)NC1=CC(=O)c2ccc(C=O)nc2C1=O` [Compound 25] the “Differential Index K/1” value [1] was greater than 1.5, the “Differential Index 3LL” value [2] was greater than 3.3 and the “Differential Index N/4.2” value [3] was “˜1.0”. The “Differential Index H/1.2” value [4] was “˜1.0”.

In the case of `CCCCCCCCOC(=O)c1cc2c([nH]c3ccccc32)c(-c2ccc3c(n2)C(=O)C(NC(=O)CCl)=CC3=O)n1` [Compound 10, 7-N-CHLOROACETYLDEMETHYLLAVENDAMYCIN OCTYL ESTER], the “Differential Index K/1” value [1] is reported as greater than 2.2, the “Differential Index 3LL” value [2] is reported as “i1.0” and the “Differential Index N/4.2” value [3] is reported as “i1.0”. For the same molecule, the “Differential Index H/1.2” value [4] was “i1.0”.

For `CC(=O)NC1=CC(=O)c2ccc(-c3nc(C(=O)OCCC(C)C)cc4c3[nH]c3ccccc34)nc2C1=O` [Compound 20], the “Activity (Average PG for highest dose tested) Colon Cancer” value [5] was −53.0%, the “Activity (Average PG for highest dose tested) Breast Cancer” value [6] was −38.6% and the “selective toxicity against ras^K oncogene bearing tumor cells as compared to the normal, non-transformed cells” value ([1]; LC50 NRKE divided by LC50 K/1) was 18 fold. For the same molecule, the “Activity (Average PG for highest dose tested) Ovarian Cancer” value [7] was −42.2%, the “tumor growth inhibition in vivo (in words)” value [14] was “excellent tumor growth inhibition” and the “Activity (Average PG for highest dose tested) Renal Cancer” value [8] was −56.1%. For the same molecule, the “Activity (Average PG for highest dose tested) Prostate Cancer” value [9] was −70.5%, the “Activity (Average PG for highest dose tested) Leukemia” value [10] was −4.0% and the “Activity (Average PG for highest dose tested) Non-Small Cell Lung Cancer” value [11] was −19.1%. For the same molecule, the “Activity (Average PG for highest dose tested) CNS Cancer” value [12] was −49.5% and the “Activity (Average PG for highest dose tested) Melanoma” value [13] was −75.2%.

In the case of `Cc1ccc2c(n1)C(=O)C(NC(=O)C(C)C)=CC2=O` [Compound 29], the “Differential Index K/1” value [1] is reported as 0.2, the “Differential Index 3LL” value [2] is reported as 2.1 and the “Differential Index N/4.2” value [3] is reported as 1.3. The “Differential Index H/1.2” value [4] was 1.03.
